Measurements: US7495028B2, “R-bambuterol, its preparation and therapeutic uses” (priority 2002, dated 2009)

What was measured:
[1] = Serum concentration of active parent form (terbutaline) after oral dosing; assay type: in vivo, guinea pig; details: guinea pigs, 8 mg/kg oral, four hours later
Experimental: Based on the pharmacokinetic studies of racemic bambuterol hydrochloride, about 50% of absorbed bambuterol is hydrolyzed to terbutaline, the active-parent form, in plasma. There is little cholinesterase in the lung strip preparation, so neither the test compound nor racemic bambuterol has significant effects. In order to test the compound of invention in vitro on isolated guinea-pig lung tissue, R-bambuterol and racemic bambuterol were administrated orally to guinea pigs at a dose of 8 mg/kg. Four hours later, blood was collected from the animals, and the serum containing the active parent form of the test compounds were prepared. The concentration of the active parent form, i.e. terbutaline, in serum measured using BPLC, was 64-70 ng/ml in the animal treated with R-bambuterol and 62-69 ng/ml in the animal treated with racemic bambuterol. The serum containing the active form of test compound was then added into the organ in a certain volume, so that the final concentration of the active forms of test compounds was 0.25 ng/ml in the organ bath. Concentration-response relationships were obtained using a cumulative dose schedule by adding the same volume of the serum into the organ bath. The test using the serum containing the active form of racemic bambuterol was done in parallel with the test compound in the same manner as described above.

[2] = tested on: sensitized conscious guinea pigs exposed to aerosol ovalbumin; assay: Protection against allergic bronchospasm in ovalbumin-sensitized conscious guinea pigs; assay type: in vivo, guinea pig
Experimental: Test method: Guinea pigs (Dunkin-Hartley strain, 200±10 g, equal sexes) were used in this study. Ovalbumin (5%) solution was injected into guinea pigs subcutaneously and intraperitoneally to sensitize the animals. Male and female sensitized animals were kept separately for 14 days, and food and water was available ad libitum. On day 14 after sensitization, animals were randomized into groups of 8 each. The animals were treated orally with saline (control) or various concentrations of R-bambuterol or racemic bambuterol in saline. Four hours after the treatment, each animal was restrained in a glass chamber. After stabilization the animal was exposed to an aerosol of ovalbumin generated by a nebulizer from a 5% solution of ovalbumine at a rate of 0.5 ml/min for a period of 15 seconds. The animal was removed from the chamber, and the behavior of the animal was monitored. The number of the sensitized animals which collapsed were counted, and the latency time, i.e. the time from the exposure to aerosol ovalbumin to the collapse of the animal, was recorded.

rats = assay: Cardiovascular effects in anesthetized rats; assay type: in vivo; details: 30 mg/kg intravenously
Description: Test method: Rats (Sprague Dawley, 250-300 g) were randomized into two groups (n=6, equal sexes). After anesthesia, plastic tubing was introduced into a carotid artery of each animal and connected to pressure transducers to record mean artery pressure (MBP) and heart rate (HR). Another tube was introduced into the left ventricular chamber via the another carotid artery and connected to a pressure transducer. Left ventricular systolic pressure (LVSP) and the first order of differential of LVSP (dp/dt) as an index for inotropic effects were recorded. R-Bambuterol and racemic bambuterol hydrochloride were dissolved in saline and administrated intravenously at 30 mg/kg to each animal. The HR, MBP and Max dp/dt were measured before treatment (control) and after the treatments when the maximum response occurred, and 20 min after treatment as indication of recovery.

For CN(C)C(=O)Oc1cc(OC(=O)N(C)C)cc(C(O)CNC(C)(C)C)c1 (stereo not drawn) [RS-bambuterol, bambuterol], the “Concentration of the active parent form, terbutaline, in serum” value [1] was 62 to 69 ng/mL, the “% collapsed” value ([2]; 1 mg/kg oral) was 75% and the Latency time ([2]; 1 mg/kg oral) was 156 ± 38 s. The Number collapsed ([2]; 1 mg/kg oral (n = 8), four hours before aerosol ovalbumin) was 6, the “% collapsed” value ([2]; 4 mg/kg oral) was 38% and the Latency time ([2]; 4 mg/kg oral) was 174 ± 21 s. The Number collapsed ([2]; 4 mg/kg oral (n = 8)) was 3, the “% collapsed” value ([2]; 8 mg/kg oral) was 25% and the Number collapsed ([2]; 8 mg/kg oral (n = 8)) was 2. For the same molecule, the Latency time ([2]; 8 mg/kg oral, listed as Racemic bambuterol) was 316 ± 36 s, the Latency time ([2]; 8 mg/kg oral, listed as racemic bambuterol) was 316 ± 36 s and the “MBP 20 min after Δ, % of control” value (rats; 20 min after treatment) was 8.3%. For the same molecule, the “MBP, 20 min after Δ” value (rats; 20 min after treatment) was 1.1 ± 0.4 Kpa, the “Maxdp/dt 20 min after Δ, % of control” value (rats; 20 min after treatment) was 4.8% and the “Maxdp/dt, 20 min after Δ” value (rats; 20 min after treatment) was 13 ± 3.8 Kpa/sec. For the same molecule, the “HR 20 min after Δ, % of Control” value (rats; 20 min after treatment, listed as Rac-Bambuterol) was 9.5%, the “HR 20 min after Δ, % of Control” value (rats; 20 min after treatment, listed as racemic bambuterol hydrochloride) was 9.5% and the “HR Treatment Δ, % of Control” value (rats; maximum response) was 20.6%. For the same molecule, the “HR, Treatment Δ” value (rats; maximum response) was 85.8 ± 5 Beat/min, the “MBP Treatment Δ, % of control” value (rats; maximum response) was 31.6% and the “MBP, Treatment Δ” value (rats; maximum response) was 4.2 ± 0.5 Kpa. For the same molecule, the “Maxdp/dt, Treatment Δ” value (rats; maximum response) was 65.4 ± 9 Kpa/sec, the “Maxdp/dt Treatment Δ, % of control” value (rats; maximum response, listed as Rac-Bambuterol) was 24.4% and the “Maxdp/dt Treatment Δ, % of control” value (rats; maximum response, listed as racemic bambuterol) was 24.4%.
